What was measured:
[1] = background art; cited from earlier work
[2] = test system: S1P3 receptor; conditions: background art; cited from earlier work
[3] = molecular target: T1, S1P1 (Homo sapiens, UniProt P21453); conditions: background art; cited from earlier work
[4] = test system: S1P5; conditions: background art; cited from earlier work
[5] = molecular target: T1, S1P1; test: β-arrestin recruitment after S1P1 receptor activation, S1P1 overexpressing cell line (luminescence); conditions: based on the two EC50 values of Table 1

T1 sequence (P21453 whole entry): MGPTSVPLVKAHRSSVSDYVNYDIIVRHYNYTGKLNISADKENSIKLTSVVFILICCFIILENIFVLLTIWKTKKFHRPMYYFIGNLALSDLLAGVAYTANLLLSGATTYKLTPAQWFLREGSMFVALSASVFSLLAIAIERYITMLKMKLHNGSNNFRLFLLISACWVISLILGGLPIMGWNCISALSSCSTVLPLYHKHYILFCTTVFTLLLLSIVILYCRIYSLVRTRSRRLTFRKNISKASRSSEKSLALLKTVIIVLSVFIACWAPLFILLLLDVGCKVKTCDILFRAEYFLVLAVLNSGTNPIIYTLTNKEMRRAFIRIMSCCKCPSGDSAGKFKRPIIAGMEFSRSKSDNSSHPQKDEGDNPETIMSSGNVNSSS

Structure (SMILES) | bradycardia side effect [1] | activation of S1P3 [2] | activity against S1P1 [3] | activity against S1P5 [4] | S1P1 activity (overall, in words) [5]
CCCCCCCCc1ccc(CCC(N)(CO)CO)cc1 [fingolimod] | causes bradycardia | activation of the S1P3 receptor |  |  | 
CCc1cc(/C(C)=N/OCc2ccc(C3CCCCC3)c(C(F)(F)F)c2)ccc1CN1CC(C(=O)O)C1 [BAF312] | bradycardia, a side effect of FTY720, still occurred | without activating S1P3 | excellent activity | excellent activity | 
CC(C)Oc1ccc(-c2ncc(-c3ccc(CN4CC(C(=O)[O-])C4)cc3)[se]2)cc1Cl.[Na+] [Compound 13, Sodium 1-(4-(2-(3-chloro-4-isopropoxyphenyl)-1,3-selenazole-5-yl)benzyl)azetidine-3-carboxylate] |  |  |  |  | excellent activity

From patent publication US20260355161A1, “NOVEL HETEROCYCLYL-PHENYL-METHYLAMINE DERIVATIVES, PREPARATION METHOD THEREOF, AND USE THEREOF IN PREVENTING, ALLEVIATING, OR TREATING MULTIPLE SCLEROSIS” (Cureverse Incorporated, priority 2022, published 2026)
